Laboratory results: US11154519B2, “Inhibitors and their uses” (MEDICAL RESEARCH COUNCIL, priority 2015, dated 2021)

Experiments:
[1] = system: HeLa cells; assay: Cell death dose response (CellTox green, IncuCyte); format: cell-based; settings: for Effect on cell death: IncuCyte, 0-20 μM; for EC50: Homo sapiens, area under % cell death vs time curve against log conc, read-out: Effect on cell death ⇒ EC50
Description: Toxicity of the compounds is assessed using Cell viability Counting Kit-8 (Dojindo) or in a Incucyte (Essenbioscience) using both phase contrast and IncuCyte™ Cytotox Green Reagent.
HeLa cells (40,000 cells/ml) were plated in a 96-well plate and treated with different concentrations (0-20 μM) of a compound as indicated in the presence of 250 ng/ml Tunicamycin for 72 hours. To monitor cell death 1/2000 dilution of the CellTox green dye (Promega) was added to the media. The growth of the cells was monitored over time and pictures taken every 2 hours with the IncuCyte ZOOM system and analysed by the IncuCyte ZOOM software (Essen BioScience). […] Cytoprotection against ER stress can be measured by a suitable assay. In this instance, cytoprotection was measured in HeLa cells in which ER stress was elicited by the addition of media containing tunicamycin, a drug that blocks N-glycosylation, thereby preventing protein folding and inducing the unfolded protein response. Cell viability was then detected in the presence and absence of a compound listed in Table 1 after a set period of time, by monitoring cell growth over time. Cytoprotection from ER stress was measured in terms of the percentage increase in viable cells (relative to control) after ER stress.
EC50 were extrapolated from dose response experiments on cell death. Data from IncuCyte was plotted and analysed in Prism. The “% of cell death” for each data point. For each concentration there is a % of cell death vs time, the area under the curve was taken and plotted against log conc=>EC50 (analysis in Prism).

[2] = target: T1, PP1 (Homo sapiens, UniProt P36873); assay: SPR binding to PP1 alone; settings: SPR steady-state, bio-PP1c surface
T1 construct: made in house; host or cells: Sf9 insect cells (baculovirus, pDW464)
T1 sequence (P36873 whole entry): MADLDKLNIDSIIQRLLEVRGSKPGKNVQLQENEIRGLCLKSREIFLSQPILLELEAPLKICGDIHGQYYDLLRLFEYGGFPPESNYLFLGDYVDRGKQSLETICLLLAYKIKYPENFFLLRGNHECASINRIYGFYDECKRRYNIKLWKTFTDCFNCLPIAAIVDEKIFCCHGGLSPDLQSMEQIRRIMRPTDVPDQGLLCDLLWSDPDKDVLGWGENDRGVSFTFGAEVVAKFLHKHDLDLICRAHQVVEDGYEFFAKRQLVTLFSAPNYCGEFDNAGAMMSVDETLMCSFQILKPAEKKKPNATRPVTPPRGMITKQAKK

[3] = system: R15A or R15B; assay: Selective binding towards R15A or R15B (based on SPR); parameters: species or system human
Description: In one embodiment, the compounds of formula IB inhibit PPP1R15A and PPP1R15B. Inhibition of PPP1R15A and PPP1R15B can be determined from binding analysis. For example, binding can be analysed using SPR (surface plasmon resonance) to obtain KD values. A PPP1R15A and PPP1R15B inhibitor may be defined as a compound where the difference in KD values between R15A and R15B is no more than about 3 fold.
Small molecules were stored as 50 mM stock solutions in 100% DMSO. Prior to determining binding constants, serial dilutions of either 12 or 8 concentrations of the compounds were prepared in the running buffer in a 96-well plate. Prior to each compound dilution series the regulatory subunit, MBP-R15A^325-636-His or MBP-R15B^340-698-His, was diluted to 10 μM in the running buffer and captured on the bio-PP1c surface at a flow rate of 30 μl/min for 1 minute to form the holophosphatase complex on the sensor chip surface. This was followed by 1 minute stabilization period, to wash off any unspecific binding. Then, without regenerating the surface, the compound dilution series was injected onto the surface of the chip at a flow rate of 30 μl/min for 1 minute, followed by 2 minutes dissociation time. After each dilution series the surface was regenerated using 3 M NaCl for 90 seconds. After regeneration, SPR responses generally returned to base levels and the bio-PP1c surface was ready for the next compound dilution series. In order to be able to correct for small variations in DMSO concentration between samples, eight solvent samples ranging from 0.06 to 8% DMSO were injected every 50th cycle. The flow cell temperature was 10° C.
Sensorgrams were analyzed using the Biacore T200 evaluation software and the binding constants determined based on a steady-state model. Kinetic experiments are carried out using different concentrations of the compound and their respective equilibrium binding levels determined.

[4] = system: protein synthesis; assay: Assessment of translation rates (35S-methionine labelling); format: cell-based; settings: for Effect on translation: 35S-methionine labelling of cells; for Effect on translation ⇒ Inhibits: target(s) concluded to be inhibited
Description: Cells (90,000 cells/ml) were plated in 12-well plates, treated as indicated, labelled with 100 μCi/mI 35S-methionine (Hartmann Analytic) for 10 minutes at 37° C., washed with ice-cold PBS and lysed in 120 μl Laemmli Buffer. Lysates were boiled at 95° C. for 5 minutes, sonicated and resolved on 4-12% Bolt Bis-Tris Plus Gels (Thermo Fisher Scientific). Gels were then stained with InstantBlue (Expedeon) and analyzed by phosphorimaging and quantified using ImageJ.
By monitoring translation rates as described above, the activities of R15A, R15B and R15A/B inhibitors can be defined as follows (also shown in FIG. 12). An R15A inhibitor has no effect on translation in unstressed cells but prolongs translation attenuation following stress. A selective R15B inhibitor transiently attenuate protein synthesis because R15A compensates for the inhibition of R15B.

[5] = Tissue distribution in mice after oral gavage; format: in vivo; settings: plasma, brain, spinal cord, pancreas, liver
[6] = system: mice; assay: Side effects of Guanabenz: activity of mice after dosing; format: in vivo; settings: 10 mg/kg oral gavage
Description: To assess whether of a compound of Example 1 had the side effects of Guanabenz, mice (n>3) were gavaged orally with 10 mg/kg of compound or Guanabenz. Their activity was monitored 30 minutes following dosing.
In humans, the adrenergic agonist activity of Guanabenz has side effects including drowsiness and coma at high doses (A. H. Hall, Ann Intern Med 102; 787-788; 1985). Due to of these side effects, Guanabenz is no longer used in human. It is anticipated that Guanabenz derivatives have the side effects of Guanabenz, associated with alpha-2 adrenergic activity.

[7] = Toxicity in mice (clinical signs, weight); format: in vivo; parameters: clinical signs: dose or concentration left out as unconfirmed; settings: 2 weeks, oral
Description: For studying the effect of a compound of Example 1 on weight, C3H/B6 mice were gavaged orally once a day with compounds of Example 1 and mice weight was recorded daily for 2 weeks.
Mice were treated with Example 1 and monitored closely to detect any clinical signs. […] This establishes that PPP1R15B inhibition is not toxic. This was surprising and unanticipated as prior to this study one would have speculated that PPP1R15B inhibitors would be so deleterious that they would have no therapeutic potential.

Compound	Effect on cell death [1]	Kd [2] [µM]	Selective binding towards R15A or R15B (based on SPR) [3]	Effect on translation [4]	Effect on translation ⇒ Inhibits [4]	EC50 [1] [µM]	tissue distribution [5]	activity of mice 30 minutes following dosing [6]	clinical signs [7]	weight gain ([7]; up to 10 mg/mg once a day)	protein synthesis rates ([4]; unstressed cells, 10 μM, FIG. 12)
[H]/N=C(\N)NN=Cc1c(Cl)ccc(Cl)c1Cl [Compound 31, (E)-2-(2,3,6-trichlorobenzylidene)hydrazine-1-carboximidamide]	No	12.6 ± 1.4	R15AB (A PPP1R15A and PPP1R15B inhibitor may be defined as a compound where the difference in KD values between R15A and R15B is no more than about 3 fold)	No	–	–	–	–	–	–	–
[H]/N=C(\N)NN=Cc1cccc(Cl)c1 [Compound 24, (E)-2-(3-chlorobenzylidene)hydrazine-1-carboximidamide]	No	6.27	R15AB (A PPP1R15A and PPP1R15B inhibitor may be defined as a compound where the difference in KD values between R15A and R15B is no more than about 3 fold)	–	R15AB	–	–	–	–	–	–
[H]/N=C(\N)NN=Cc1cc(F)c(Cl)cc1Cl [Compound 7, (E)-2-(2,4-dichloro-5-fluorobenzylidene)hydrazine-1-carboximidamide]	Yes	13	R15AB (A PPP1R15A and PPP1R15B inhibitor may be defined as a compound where the difference in KD values between R15A and R15B is no more than about 3 fold)	–	R15AB	11.5	–	–	–	–	–
N=C(N)N/N=C/c1cc(Cl)c(Cl)c(Cl)c1 [Compound 3, (E)-2-(3,4,5-trichlorobenzylidene)hydrazine-1-carboximidamide]	Yes	10.3	R15AB (A PPP1R15A and PPP1R15B inhibitor may be defined as a compound where the difference in KD values between R15A and R15B is no more than about 3 fold)	Persistent	–	9.17	–	–	–	–	–
[H]/N=C(\N)NN=Cc1cccc(Cl)c1F [Compound 30, (E)-2-(3-chloro-2-fluorobenzylidene)hydrazine-1-carboximidamide]	No	12.8 ± 0.08	R15AB (A PPP1R15A and PPP1R15B inhibitor may be defined as a compound where the difference in KD values between R15A and R15B is no more than about 3 fold)	No	–	–	–	–	–	–	–
[H]/N=C(\N)NN=Cc1cccc(Cl)c1Br [Compound 9, (E)-2-(2-bromo-3-chlorobenzylidene)hydrazine-1-carboximidamide]	Yes	14.7 ± 1.4	R15A (A “selective inhibitor” may be defined as a compound where the difference in KD values between R15A and R15B is greater than 3 fold)	–	Off	12	–	–	–	–	–
[H]/N=C(\N)NN=Cc1cccc(Cl)c1Cl [Compound 16, (E)-2-(2,3-dichlorobenzylidene)hydrazine-1-carboximidamide]	Yes	–	R15B (A “selective inhibitor” may be defined as a compound where the difference in KD values between R15A and R15B is greater than 3 fold)	Transient	–	20.8	extensive tissue distribution	as active as untreated mice	undistinguishable from mice treated with placebo	gained weight normally	transiently inhibits protein synthesis in unstressed cells
[H]/N=C(\N)NN=Cc1ccc(Cl)c(F)c1 [Compound 8, (E)-2-(4-chloro-3-fluorobenzylidene)hydrazine-1-carboximidamide]	Yes	10.6 ± 3.82	R15AB (A PPP1R15A and PPP1R15B inhibitor may be defined as a compound where the difference in KD values between R15A and R15B is no more than about 3 fold)	–	R15AB	11.7	–	–	–	–	–
[H]/N=C(\N)NN=Cc1ccccc1F [Compound 17, (E)-2-(2-fluorobenzylidene)hydrazine-1-carboximidamide]	No	12 ± 0.8	R15AB (A PPP1R15A and PPP1R15B inhibitor may be defined as a compound where the difference in KD values between R15A and R15B is no more than about 3 fold)	(No)	–	–	–	–	–	–	–
